What was measured:
Hepatotoxicity [1] = system: Hepatotoxicity;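 as to HepSE Combined Scores: combined hepatic side effect score as listed in the training data of the Drug Induced Liver Injury Prediction System (DILIps)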;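 as to HepSE cholelithiasis: hepatic side effect score for cholelithiasis, drawn from the DILIps training data for predicting drug-induced liver injury; call rule not given here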;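 as to HepSE cirrhosis: cirrhosis hepatic side effect score taken from the DILIps (drug-induced liver injury prediction) training set; call rule not given here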;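 as to HepSE hepatitis: Hepatitis-related hepatic side effect score taken from the training data of DILIps, a prediction system for drug-induced liver injury; call rule not given here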;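 as to HepSE jaundice: Jaundice-related hepatic side-effect score drawn from the training data of the DILIps (drug-induced liver injury prediction system); call rule not given here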; as to HepSE liver disease: call rule not given here;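 as to HepSE liver function tests abnormal: hepatic side effect score taken from the DILIps (drug-induced liver injury prediction system) training data, here covering abnormal liver function test findings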
Hepatotoxicity [2] = system: Hepatotoxicity; remark: listed apart in the source;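 as to HepSE Combined Scores: combined hepatic side effect score as listed in the training data of the Drug Induced Liver Injury Prediction System (DILIps)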;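 as to HepSE cholelithiasis: hepatic side effect score for cholelithiasis, drawn from the DILIps training data for predicting drug-induced liver injury; call rule not given here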;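 as to HepSE cirrhosis: cirrhosis hepatic side effect score taken from the DILIps (drug-induced liver injury prediction) training set; call rule not given here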;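 as to HepSE hepatitis: Hepatitis-related hepatic side effect score taken from the training data of DILIps, a prediction system for drug-induced liver injury; call rule not given here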;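 as to HepSE jaundice: Jaundice-related hepatic side-effect score drawn from the training data of the DILIps (drug-induced liver injury prediction system); call rule not given here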; as to HepSE liver disease: call rule not given here;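 as to HepSE liver function tests abnormal: hepatic side effect score taken from the DILIps (drug-induced liver injury prediction system) training data, here covering abnormal liver function test findings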
Hepatotoxicity [3] = system: Hepatotoxicity; remark: listed apart in the source;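 as to HepSE Combined Scores: combined hepatic side effect score as listed in the training data of the Drug Induced Liver Injury Prediction System (DILIps)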;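 as to HepSE cholelithiasis: hepatic side effect score for cholelithiasis, drawn from the DILIps training data for predicting drug-induced liver injury; call rule not given here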;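 as to HepSE cirrhosis: cirrhosis hepatic side effect score taken from the DILIps (drug-induced liver injury prediction) training set; call rule not given here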;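 as to HepSE hepatitis: Hepatitis-related hepatic side effect score taken from the training data of DILIps, a prediction system for drug-induced liver injury; call rule not given here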;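 as to HepSE jaundice: Jaundice-related hepatic side-effect score drawn from the training data of the DILIps (drug-induced liver injury prediction system); call rule not given here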; as to HepSE liver disease: call rule not given here
Hepatotoxicity [4] = system: Hepatotoxicity; remark: listed apart in the source;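 as to HepSE Combined Scores: combined hepatic side effect score as listed in the training data of the Drug Induced Liver Injury Prediction System (DILIps)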;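 as to HepSE cholelithiasis: hepatic side effect score for cholelithiasis, drawn from the DILIps training data for predicting drug-induced liver injury; call rule not given here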;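 as to HepSE cirrhosis: cirrhosis hepatic side effect score taken from the DILIps (drug-induced liver injury prediction) training set; call rule not given here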;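 as to HepSE hepatitis: Hepatitis-related hepatic side effect score taken from the training data of DILIps, a prediction system for drug-induced liver injury; call rule not given here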;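 as to HepSE jaundice: Jaundice-related hepatic side-effect score drawn from the training data of the DILIps (drug-induced liver injury prediction system); call rule not given here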; as to HepSE liver disease: call rule not given here
Hepatotoxicity [5] = system: Hepatotoxicity; remark: listed apart in the source; as to HepSE liver disease: call rule not given here
Hepatotoxicity [6] = system: Hepatotoxicity; remark: listed apart in the source; as to HepSE liver disease: call rule not given here
Hepatotoxicity [7] = system: Hepatotoxicity; remark: listed apart in the source
Hepatotoxicity [8] = system: Hepatotoxicity; remark: listed apart in the source
Hepatotoxicity [9] = system: Hepatotoxicity; remark: listed apart in the source
Hepatotoxicity [10] = system: Hepatotoxicity; remark: listed apart in the source
Hepatotoxicity [11] = system: Hepatotoxicity; remark: listed apart in the source
Hepatotoxicity [12] = system: Hepatotoxicity; remark: listed apart in the source
Hepatotoxicity [13] = system: Hepatotoxicity; remark: listed apart in the source
Hepatotoxicity [14] = system: Hepatotoxicity; remark: listed apart in the source

Compound	HepSE_Combined Scores (Hepatotoxicity [1])	HepSE_hepatitis (Hepatotoxicity [2])	HepSE_cholelithiasis (Hepatotoxicity [3])	HepSE_liver disease (Hepatotoxicity [4])	HepSE_jaundice (Hepatotoxicity [5])	HepSE_cirrhosis (Hepatotoxicity [6])	HepSE_bilirubinemia (Hepatotoxicity [7])	HepSE_liver fatty (Hepatotoxicity [8])	HepSE_liver function tests abnormal (Hepatotoxicity [9])	HepSE_hepatomegaly (Hepatotoxicity [10])	HepSE_cholecystitis (Hepatotoxicity [11])	HepSE_hepatic failure (Hepatotoxicity [12])	HepSE_hepatic necrosis (Hepatotoxicity [13])	HepSE_elevated liver function tests (Hepatotoxicity [14])	other results
C[C@]1(O)CC[C@H]2[C@@H]3CCC4=CC(=O)CC[C@]4(C)[C@@]3(F)[C@@H](O)C[C@@]21C [FLUOXYMESTERONE]	1	0	0	0	1	0	0	0	0	0	0	0	0	0	–
CCCCCNC(=N)N/N=C/c1c[nH]c2ccc(OC)cc12 [TEGASEROD]	4	1	1	0	0	0	1	0	0	0	1	0	0	0	–
CNS(=O)(=O)CCc1ccc2[nH]cc(C3CCN(C)CC3)c2c1	1	0	0	0	0	0	0	0	1	0	0	0	0	0	–
CC(N)C12CC3CC(CC(C3)C1)C2 (configuration not stated) [RIMANTADINE]	0	0	0	0	0	0	0	0	0	0	0	0	0	0	–
O=C(O)CCNC(=O)c1ccc(/N=N/c2ccc(O)c(C(=O)O)c2)cc1 [BALSALAZIDE]	5	0	0	0	1	1	0	0	0	0	0	1	1	1	–
CO/N=C(\C(=O)N[C@@H]1C(=O)N2C(C(=O)OCOC(=O)C(C)(C)C)=C(/C=C\c3scnc3C)CS[C@H]12)c1csc(N)n1 [CEFDITOREN PIVOXIL]	1	0	0	0	0	0	0	0	1	0	0	0	0	0	–
CC(=O)[C@]1(O)Cc2c(O)c3c(c(O)c2[C@@H](O[C@H]2C[C@H](N)[C@H](O)[C@H](C)O2)C1)C(=O)c1ccccc1C3=O [IDARUBICIN]	0	0	0	0	0	0	0	0	0	0	0	0	0	0	–
Nc1nc(=O)n([C@@H]2CS[C@H](CO)O2)cc1F [EMTRICITABINE]	–	–	–	–	–	–	–	–	–	–	–	–	–	–	HepSE_Combined Scores (Hepatotoxicity [1]; Liver): 0; HepSE_hepatitis (Hepatotoxicity [2]; Liver): 0; HepSE_cholelithiasis (Hepatotoxicity [3]; Liver): 0; HepSE_liver disease (Hepatotoxicity [4]; Liver): 0; HepSE_jaundice (Hepatotoxicity [5]; Liver): 0; HepSE_cirrhosis (Hepatotoxicity [6]; Liver): 0; HepSE_bilirubinemia (Hepatotoxicity [7]; Liver): 0; HepSE_liver fatty (Hepatotoxicity [8]; Liver): 0; HepSE_liver function tests abnormal (Hepatotoxicity [9]; Liver): 0; HepSE_hepatomegaly (Hepatotoxicity [10]; Liver): 0; HepSE_cholecystitis (Hepatotoxicity [11]; Liver): 0; HepSE_hepatic failure (Hepatotoxicity [12]; Liver): 0; HepSE_hepatic necrosis (Hepatotoxicity [13]; Liver): 0; HepSE_elevated liver function tests (Hepatotoxicity [14]; Liver): 0
O=P(O)(O)O [PHOSPHORIC ACID]	–	–	–	–	–	–	–	–	–	–	–	–	–	–	HepSE_Combined Scores (Hepatotoxicity [1]; Liver): 0; HepSE_hepatitis (Hepatotoxicity [2]; Liver): 0; HepSE_cholelithiasis (Hepatotoxicity [3]; Liver): 0; HepSE_liver disease (Hepatotoxicity [4]; Liver): 0; HepSE_jaundice (Hepatotoxicity [5]; Liver): 0; HepSE_cirrhosis (Hepatotoxicity [6]; Liver): 0; HepSE_bilirubinemia (Hepatotoxicity [7]; Liver): 0; HepSE_liver fatty (Hepatotoxicity [8]; Liver): 0; HepSE_liver function tests abnormal (Hepatotoxicity [9]; Liver): 0; HepSE_hepatomegaly (Hepatotoxicity [10]; Liver): 0; HepSE_cholecystitis (Hepatotoxicity [11]; Liver): 0; HepSE_hepatic failure (Hepatotoxicity [12]; Liver): 0; HepSE_hepatic necrosis (Hepatotoxicity [13]; Liver): 0; HepSE_elevated liver function tests (Hepatotoxicity [14]; Liver): 0
COc1ccc([C@@H]2Sc3ccccc3N(CCN(C)C)C(=O)[C@@H]2OC(C)=O)cc1 [DILTIAZEM]	0	0	0	0	0	0	0	0	0	0	0	0	0	0	–
CN(C)CCc1c[nH]c2ccc(C[C@H]3COC(=O)N3)cc12 [ZOLMITRIPTAN]	2	0	0	1	1	0	0	0	0	0	0	0	0	0	–
CO/N=C(\C(=O)N[C@@H]1C(=O)N2C(C(=O)O)=C(COC(N)=O)CS[C@H]12)c1ccco1 [CEFUROXIME]	2	1	0	0	1	0	0	0	0	0	0	0	0	0	–
CCC1(c2ccc(N)cc2)CCC(=O)NC1=O (configuration not stated) [AMINOGLUTETHIMIDE]	0	0	0	0	0	0	0	0	0	0	0	0	0	0	–

Source: ChEMBL document CHEMBL1909294, “Translating clinical findings into knowledge in drug safety evaluation--drug induced liver injury prediction system (DILIps)” (PLoS Comput Biol, 2011)
